Read-outs that look alike come from different tables or passages of the source.
Assays:
Format in all cases: cell-based
[1] = target: proteins of HEK293T cells transiently overexpressing caspase-6 (Homo sapiens, UniProt O96008); settings: exp_ref Probe; protein TOMM40 (O96008); analysis C6
[2] = target: proteins of HEK293T cells transiently overexpressing caspase-6 (Homo sapiens, UniProt P04181); settings: exp_ref Probe; protein OAT (P04181); analysis C6
[3] = target: proteins of HEK293T cells transiently overexpressing caspase-6 (Homo sapiens, UniProt P05023); settings: exp_ref Probe; protein ATP1A1 (P05023); analysis C6
[4] = target: proteins of HEK293T cells transiently overexpressing caspase-6 (Homo sapiens, UniProt P05141); settings: exp_ref Probe; protein SLC25A5 (P05141); analysis C6
[5] = target: proteins of HEK293T cells transiently overexpressing caspase-6 (Homo sapiens, UniProt P07237); settings: protein P4HB (P07237)
[6] = target: proteins of HEK293T cells transiently overexpressing caspase-6 (Homo sapiens, UniProt P09874); settings: protein PARP1 (P09874)
[7] = target: proteins of HEK293T cells transiently overexpressing caspase-6 (Homo sapiens, UniProt P0DMV8); settings: protein HSPA1A (P0DMV8)
[8] = target: proteins of HEK293T cells transiently overexpressing caspase-6 (Homo sapiens, UniProt P12277); settings: protein CKB (P12277)
[9] = target: proteins of HEK293T cells transiently overexpressing caspase-6 (Homo sapiens, UniProt P25205); settings: exp_ref Probe; protein MCM3 (P25205); analysis C6
[10] = target: proteins of HEK293T cells transiently overexpressing caspase-6 (Homo sapiens, UniProt P27694); settings: Probe; protein RPA1 P27694
[11] = target: proteins of HEK293T cells transiently overexpressing caspase-6 (Homo sapiens, UniProt P30153); settings: exp_ref Probe; protein PPP2R1A (P30153); analysis C6
[12] = target: proteins of HEK293T cells transiently overexpressing caspase-6 (Homo sapiens, UniProt P31946); settings: exp_ref Probe; protein YWHAB (P31946); analysis C6
[13] = target: proteins of HEK293T cells transiently overexpressing caspase-6 (Homo sapiens, UniProt P34897); settings: Probe; protein SHMT2 P34897
[14] = target: proteins of HEK293T cells transiently overexpressing caspase-6 (Homo sapiens, UniProt P40227); settings: exp_ref Probe; protein CCT6A (P40227); analysis C6
[15] = target: proteins of HEK293T cells transiently overexpressing caspase-6 (Homo sapiens, UniProt P46782); settings: protein RPS5 (P46782)
[16] = target: proteins of HEK293T cells transiently overexpressing caspase-6 (Homo sapiens, UniProt P54886); settings: exp_ref Probe; protein ALDH18A1 (P54886); analysis C6
[17] = target: T1, proteins of HEK293T cells transiently overexpressing caspase-6 (Homo sapiens, UniProt P62258); settings: protein YWHAE (P62258)
T1 sequence (P62258 1-255): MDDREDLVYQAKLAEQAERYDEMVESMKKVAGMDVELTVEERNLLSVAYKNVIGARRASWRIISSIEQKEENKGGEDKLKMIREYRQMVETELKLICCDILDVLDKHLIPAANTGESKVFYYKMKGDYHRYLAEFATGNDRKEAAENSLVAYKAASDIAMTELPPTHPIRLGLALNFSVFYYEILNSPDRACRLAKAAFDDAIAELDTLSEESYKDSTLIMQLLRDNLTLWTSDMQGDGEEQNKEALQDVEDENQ

[18] = target: proteins of HEK293T cells transiently overexpressing caspase-6 (Homo sapiens, UniProt Q92598); settings: exp_ref Probe; protein HSPH1 (Q92598); analysis C6
[19] = target: proteins of HEK293T cells transiently overexpressing caspase-6 (Homo sapiens, UniProt Q9H7Z7); settings: protein PTGES2 (Q9H7Z7)
[20] = target: proteins of HEK293T cells transiently overexpressing caspase-6 (Homo sapiens, UniProt Q9Y262); settings: exp_ref Probe; protein EIF3L (Q9Y262); analysis C6

Sequence of proteins of HEK293T cells transiently overexpressing caspase-6 (Homo sapiens, UniProt P09874) (P09874 whole entry): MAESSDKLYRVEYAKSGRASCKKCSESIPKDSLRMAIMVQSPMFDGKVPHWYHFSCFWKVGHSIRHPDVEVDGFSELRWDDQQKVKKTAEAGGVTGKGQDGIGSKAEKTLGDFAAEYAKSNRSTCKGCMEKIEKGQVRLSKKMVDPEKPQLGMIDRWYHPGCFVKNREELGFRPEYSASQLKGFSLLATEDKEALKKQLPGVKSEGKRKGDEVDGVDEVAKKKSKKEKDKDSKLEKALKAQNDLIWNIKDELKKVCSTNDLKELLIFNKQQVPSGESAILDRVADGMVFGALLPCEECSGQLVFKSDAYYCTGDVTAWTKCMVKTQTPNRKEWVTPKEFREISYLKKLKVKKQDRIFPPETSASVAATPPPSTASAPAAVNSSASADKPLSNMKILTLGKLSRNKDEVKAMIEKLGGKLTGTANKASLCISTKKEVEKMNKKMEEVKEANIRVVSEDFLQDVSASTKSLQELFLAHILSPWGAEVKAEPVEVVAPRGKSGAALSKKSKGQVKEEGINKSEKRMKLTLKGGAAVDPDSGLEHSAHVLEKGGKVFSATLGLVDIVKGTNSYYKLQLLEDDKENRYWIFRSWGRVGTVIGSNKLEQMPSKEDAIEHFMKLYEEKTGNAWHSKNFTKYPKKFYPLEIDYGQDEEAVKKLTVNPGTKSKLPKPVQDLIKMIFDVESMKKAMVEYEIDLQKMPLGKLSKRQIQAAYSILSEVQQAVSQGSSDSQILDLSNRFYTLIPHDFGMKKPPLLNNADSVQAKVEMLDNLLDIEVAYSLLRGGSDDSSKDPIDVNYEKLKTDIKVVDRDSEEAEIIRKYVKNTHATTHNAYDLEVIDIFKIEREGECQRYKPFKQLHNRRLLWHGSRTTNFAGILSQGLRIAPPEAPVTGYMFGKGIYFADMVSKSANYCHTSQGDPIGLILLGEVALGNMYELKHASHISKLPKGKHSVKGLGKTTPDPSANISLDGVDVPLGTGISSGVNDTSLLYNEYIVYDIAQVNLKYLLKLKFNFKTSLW
Sequence of proteins of HEK293T cells transiently overexpressing caspase-6 (Homo sapiens, UniProt Q9H7Z7) (Q9H7Z7 whole entry): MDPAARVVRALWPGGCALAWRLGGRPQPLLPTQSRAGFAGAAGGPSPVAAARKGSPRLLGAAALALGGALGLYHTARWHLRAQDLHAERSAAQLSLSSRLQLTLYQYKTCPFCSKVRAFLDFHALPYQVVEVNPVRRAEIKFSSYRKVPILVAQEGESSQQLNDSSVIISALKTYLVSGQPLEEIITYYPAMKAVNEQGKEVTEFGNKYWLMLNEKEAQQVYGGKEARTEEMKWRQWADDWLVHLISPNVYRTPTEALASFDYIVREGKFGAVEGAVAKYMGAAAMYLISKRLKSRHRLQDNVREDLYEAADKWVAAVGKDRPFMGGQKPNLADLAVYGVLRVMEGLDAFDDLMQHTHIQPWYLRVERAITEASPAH
Sequence of proteins of HEK293T cells transiently overexpressing caspase-6 (Homo sapiens, UniProt P12277) (P12277 whole entry): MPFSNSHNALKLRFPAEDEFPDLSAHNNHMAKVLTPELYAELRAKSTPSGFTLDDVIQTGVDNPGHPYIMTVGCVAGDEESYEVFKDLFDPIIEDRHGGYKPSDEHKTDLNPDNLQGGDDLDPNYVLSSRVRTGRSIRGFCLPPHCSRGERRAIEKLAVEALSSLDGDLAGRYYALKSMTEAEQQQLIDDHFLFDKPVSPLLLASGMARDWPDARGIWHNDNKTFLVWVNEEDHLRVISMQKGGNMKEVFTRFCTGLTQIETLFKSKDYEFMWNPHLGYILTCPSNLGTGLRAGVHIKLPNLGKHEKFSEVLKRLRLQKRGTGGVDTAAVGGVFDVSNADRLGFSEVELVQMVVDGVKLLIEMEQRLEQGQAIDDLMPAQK
Sequence of proteins of HEK293T cells transiently overexpressing caspase-6 (Homo sapiens, UniProt P07237) (P07237 18-508): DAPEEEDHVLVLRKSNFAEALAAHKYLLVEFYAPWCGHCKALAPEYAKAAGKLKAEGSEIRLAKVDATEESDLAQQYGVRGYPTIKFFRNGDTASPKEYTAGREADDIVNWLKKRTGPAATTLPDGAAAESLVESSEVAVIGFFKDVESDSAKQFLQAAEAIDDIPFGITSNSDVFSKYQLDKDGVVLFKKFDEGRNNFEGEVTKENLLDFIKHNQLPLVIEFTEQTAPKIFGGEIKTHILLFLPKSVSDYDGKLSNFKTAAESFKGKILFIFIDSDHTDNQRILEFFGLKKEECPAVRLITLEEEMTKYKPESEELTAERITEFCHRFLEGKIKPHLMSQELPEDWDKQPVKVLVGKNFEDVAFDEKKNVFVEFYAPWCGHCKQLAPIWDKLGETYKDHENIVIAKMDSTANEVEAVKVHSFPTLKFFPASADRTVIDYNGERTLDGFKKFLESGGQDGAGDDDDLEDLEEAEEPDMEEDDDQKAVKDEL
Sequence of proteins of HEK293T cells transiently overexpressing caspase-6 (Homo sapiens, UniProt P0DMV8) (P0DMV8 whole entry): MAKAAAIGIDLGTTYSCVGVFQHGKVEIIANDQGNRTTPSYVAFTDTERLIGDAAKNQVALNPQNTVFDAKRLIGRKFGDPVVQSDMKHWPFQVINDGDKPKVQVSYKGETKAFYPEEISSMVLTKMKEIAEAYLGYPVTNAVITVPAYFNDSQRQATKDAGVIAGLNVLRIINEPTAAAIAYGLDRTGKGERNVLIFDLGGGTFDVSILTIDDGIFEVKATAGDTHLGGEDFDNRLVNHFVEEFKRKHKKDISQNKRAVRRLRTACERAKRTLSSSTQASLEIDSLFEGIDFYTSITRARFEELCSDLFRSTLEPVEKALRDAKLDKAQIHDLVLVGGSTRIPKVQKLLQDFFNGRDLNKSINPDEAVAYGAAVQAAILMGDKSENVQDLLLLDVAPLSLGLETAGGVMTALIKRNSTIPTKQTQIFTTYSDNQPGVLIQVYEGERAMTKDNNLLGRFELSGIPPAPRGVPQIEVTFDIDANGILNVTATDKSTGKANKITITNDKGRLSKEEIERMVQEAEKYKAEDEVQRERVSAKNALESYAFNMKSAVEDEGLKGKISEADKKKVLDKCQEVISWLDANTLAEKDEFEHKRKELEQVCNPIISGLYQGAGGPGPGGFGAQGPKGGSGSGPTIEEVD
Sequence of proteins of HEK293T cells transiently overexpressing caspase-6 (Homo sapiens, UniProt O96008) (O96008 whole entry): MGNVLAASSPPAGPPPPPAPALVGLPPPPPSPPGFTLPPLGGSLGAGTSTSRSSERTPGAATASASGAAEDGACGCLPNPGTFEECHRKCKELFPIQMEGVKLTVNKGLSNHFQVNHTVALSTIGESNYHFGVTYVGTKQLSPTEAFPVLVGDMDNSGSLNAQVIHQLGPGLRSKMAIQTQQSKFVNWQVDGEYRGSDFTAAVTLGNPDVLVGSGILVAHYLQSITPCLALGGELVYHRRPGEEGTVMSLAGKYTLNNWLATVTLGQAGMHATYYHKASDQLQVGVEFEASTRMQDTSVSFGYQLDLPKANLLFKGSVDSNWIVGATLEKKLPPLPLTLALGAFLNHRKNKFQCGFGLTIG
Sequence of proteins of HEK293T cells transiently overexpressing caspase-6 (Homo sapiens, UniProt P31946) (P31946 whole entry): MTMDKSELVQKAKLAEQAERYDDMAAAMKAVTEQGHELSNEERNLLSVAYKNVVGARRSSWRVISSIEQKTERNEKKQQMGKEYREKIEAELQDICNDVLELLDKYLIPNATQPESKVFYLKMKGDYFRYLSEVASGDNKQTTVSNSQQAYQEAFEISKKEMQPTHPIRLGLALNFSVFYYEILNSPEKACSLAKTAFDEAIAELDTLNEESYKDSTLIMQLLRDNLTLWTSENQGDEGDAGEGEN
Sequence of proteins of HEK293T cells transiently overexpressing caspase-6 (Homo sapiens, UniProt P25205) (P25205 whole entry): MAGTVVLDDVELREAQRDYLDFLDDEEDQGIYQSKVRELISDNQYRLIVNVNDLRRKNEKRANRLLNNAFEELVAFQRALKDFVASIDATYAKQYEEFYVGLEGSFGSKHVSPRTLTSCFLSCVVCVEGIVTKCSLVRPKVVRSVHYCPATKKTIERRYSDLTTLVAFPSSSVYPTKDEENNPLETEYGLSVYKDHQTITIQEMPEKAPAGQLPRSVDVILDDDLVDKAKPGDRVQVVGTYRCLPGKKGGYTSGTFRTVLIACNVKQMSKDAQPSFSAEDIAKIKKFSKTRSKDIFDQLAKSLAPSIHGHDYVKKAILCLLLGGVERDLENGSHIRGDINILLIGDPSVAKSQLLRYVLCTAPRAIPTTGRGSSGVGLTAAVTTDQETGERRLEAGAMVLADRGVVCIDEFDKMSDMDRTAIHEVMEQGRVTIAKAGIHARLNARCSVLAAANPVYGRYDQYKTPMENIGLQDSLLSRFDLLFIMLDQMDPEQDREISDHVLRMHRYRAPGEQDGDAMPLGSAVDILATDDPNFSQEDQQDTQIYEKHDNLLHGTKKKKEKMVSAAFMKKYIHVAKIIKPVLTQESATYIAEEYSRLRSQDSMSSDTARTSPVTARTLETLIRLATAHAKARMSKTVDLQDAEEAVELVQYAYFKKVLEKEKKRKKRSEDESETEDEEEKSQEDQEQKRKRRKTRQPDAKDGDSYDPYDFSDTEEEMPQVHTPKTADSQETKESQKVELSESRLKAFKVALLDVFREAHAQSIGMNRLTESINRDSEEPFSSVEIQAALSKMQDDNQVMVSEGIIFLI
Sequence of proteins of HEK293T cells transiently overexpressing caspase-6 (Homo sapiens, UniProt P40227) (P40227 whole entry): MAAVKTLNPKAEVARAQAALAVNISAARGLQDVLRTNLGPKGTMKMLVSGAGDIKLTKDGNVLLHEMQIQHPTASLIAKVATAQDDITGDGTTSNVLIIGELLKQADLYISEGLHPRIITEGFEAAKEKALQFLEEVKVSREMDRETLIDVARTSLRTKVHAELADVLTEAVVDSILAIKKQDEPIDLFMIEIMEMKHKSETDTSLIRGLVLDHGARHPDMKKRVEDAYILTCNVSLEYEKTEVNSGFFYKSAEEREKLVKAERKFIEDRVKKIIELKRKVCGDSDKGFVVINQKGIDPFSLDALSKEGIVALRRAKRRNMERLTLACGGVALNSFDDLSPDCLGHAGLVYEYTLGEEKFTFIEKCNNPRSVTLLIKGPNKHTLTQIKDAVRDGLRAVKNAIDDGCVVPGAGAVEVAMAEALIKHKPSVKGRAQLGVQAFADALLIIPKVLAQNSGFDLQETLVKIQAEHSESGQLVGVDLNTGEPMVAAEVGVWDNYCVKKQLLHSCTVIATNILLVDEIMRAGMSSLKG

C#CCOc1ccc([C@@H]2C[C@@H](C(=O)Nc3ccc(OC(F)(F)F)cc3)CN(S(=O)(=O)C=C)C2)cc1 (relative stereo) [13-t]
enrich.exp.med [1]: 0.5045 | enrich.exp.med [2]: 1.012 | enrich.exp.med [3]: -0.3639 | enrich.exp.med [4]: 0.9373 | enrich.exp.med.lin [5]: 4.024 | enrich.exp.med.log2 [5]: 2.009 | enrich.exp.med ([5]; exp_ref Probe, analysis C6): 2.009 | enrich.exp.med ([6]; exp_ref Probe, analysis C6): 0.2769 | enrich.exp.med.lin [6]: 1.2116 | enrich.exp.med.log2 [6]: 0.2769 | enrich.exp.med ([7]; exp_ref Probe, analysis C6): 0.4797 | enrich.exp.med.lin [7]: 1.394 | enrich.exp.med.log2 [7]: 0.4797 | enrich.exp.med ([8]; exp_ref Probe, analysis C6): 0.5567 | enrich.exp.med.lin [8]: 1.4709 | enrich.exp.med.log2 [8]: 0.5567 | enrich.exp.med [9]: 0.2109 | enrich.exp.med [10]: -1.323 | enrich.exp.med [11]: 0.444 | enrich.exp.med [12]: -0.2081 | enrich.exp.med [13]: -2.762 | enrich.exp.med [14]: 0.2516 | enrich.exp.med.lin [15]: 3.054 | enrich.exp.med.log2 [15]: 1.611 | enrich.exp.med ([15]; exp_ref Probe, analysis C6): 1.611 | enrich.exp.med [16]: 0.3406 | enrich.exp.med ([17]; exp_ref Probe, analysis C6): 0.9895 | enrich.exp.med.lin [17]: 1.986 | enrich.exp.med.log2 [17]: 0.9895 | enrich.exp.med [18]: 0.7489 | enrich.exp.med.lin [19]: 8.188 | enrich.exp.med.log2 [19]: 3.034 | enrich.exp.med.lin ([19]; Expt Probe, analysis C6): 8.188 | enrich.exp.med.log2 ([19]; Expt Probe, analysis C6): 3.034 | enrich.exp.med ([19]; exp_ref Probe, analysis C6): 3.034 | enrich.exp.med [20]: 0.2171

From PMC10176470, “Engaging a Non-catalytic Cysteine Residue Drives Potent and Selective Inhibition of Caspase-6” (Journal of the American Chemical Society, 2023)
